Measurements as given in patent US20140343000A1 (priority 2011, published 2014).
pEC50: −log10 of the molar value.

test system: recombinant NL4-3 virus (Renilla luciferase in nef, Gag P373S; NLRluc) in MT-2 cells; assay: whole plant or invertebrate; type: cell-based, HIV; settings: Renilla, NL43, luciferase activity in cells infected for 4-5 days with NLRluc recombinants, serial dilutions of inhibitor; class symbols (key in Table 1); read-out: EC50
Method in brief: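 Luciferase signal is the read-out: after 4-5 days of infection in the presence of serially diluted compound, MT-2 cells are lysed with a premix of lysis buffer, luciferase reagent and Stop & Glo substrate, and luminescence is read immediately.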

Compound | pEC50
C=C(C)[C@@H]1CC[C@]2(NCCN3CCN(C(=O)C4CCCCC4)CC3)CC[C@]3(C)[C@H](CC[C@@H]4[C@@]5(C)CC=C(c6ccc(C(=O)O)cc6)C(C)(C)[C@@H]5CC[C@]43C)[C@@H]12 [Example B53, 4-((1R,3aS,5aR,5bR,7aR,11aS,11bR,13aR,13bR)-3a-((2-(4-(cyclohexanecarbonyl)piperazin-1-yl)ethyl)amino)-5a,5b,8,8,11a-pentamethyl-1-(prop-1-en-2-yl)-2,3,3a,4,5,5a,5b,6,7,7a,8,11,11a,11b,12,13,13a,13b-octadecahydro-1H-cyclopenta[a]chrysen-9-yl)benzoic acid] | > 7.00
C=C(C)[C@@H]1CC[C@]2(NCCN3CCN(C(=O)C4CCC4)CC3)CC[C@]3(C)[C@H](CC[C@@H]4[C@@]5(C)CC=C(c6ccc(C(=O)O)cc6)C(C)(C)[C@@H]5CC[C@]43C)[C@@H]12 [Example B54, 4-((1R,3aS,5aR,5bR,7aR,11aS,11bR,13aR,13bR)-3a-((2-(4-(cyclobutanecarbonyl)piperazin-1-yl)ethyl)amino)-5a,5b,8,8,11a-pentamethyl-1-(prop-1-en-2-yl)-2,3,3a,4,5,5a,5b,6,7,7a,8,11,11a,11b,12,13,13a,13b-octadecahydro-1H-cyclopenta[a]chrysen-9-yl)benzoic acid] | > 7.00
C=C(C)[C@@H]1CC[C@]2(NCCN3CCN(C(=O)C4CCCC4)CC3)CC[C@]3(C)[C@H](CC[C@@H]4[C@@]5(C)CC=C(c6ccc(C(=O)O)cc6)C(C)(C)[C@@H]5CC[C@]43C)[C@@H]12 [Example B55, 4-((1R,3aS,5aR,5bR,7aR,11aS,11bR,13aR,13bR)-3a-((2-(4-(cyclopentanecarbonyl)piperazin-1-yl)ethyl)amino)-5a,5b,8,8,11a-pentamethyl-1-(prop-1-en-2-yl)-2,3,3a,4,5,5a,5b,6,7,7a,8,11,11a,11b,12,13,13a,13b-octadecahydro-1H-cyclopenta[a]chrysen-9-yl)benzoic acid] | > 7.00
C=C(C)[C@@H]1CC[C@]2(NCCN3CCN(C(=O)CC4CCCC4)CC3)CC[C@]3(C)[C@H](CC[C@@H]4[C@@]5(C)CC=C(c6ccc(C(=O)O)cc6)C(C)(C)[C@@H]5CC[C@]43C)[C@@H]12 [Example B56, 4-((1R,3aS,5aR,5bR,7aR,11aS,11bR,13aR,13bR)-3a-((2-(4-(2-cyclopentylacetyl)piperazin-1-yl)ethyl)amino)-5a,5b,8,8,11a-pentamethyl-1-(prop-1-en-2-yl)-2,3,3a,4,5,5a,5b,6,7,7a,8,11,11a,11b,12,13,13a,13b-octadecahydro-1H-cyclopenta[a]chrysen-9-yl)benzoic acid] | > 7.00
C=C(C)[C@@H]1CC[C@]2(NCCN3CCN(C(=O)CC4CCCCC4)CC3)CC[C@]3(C)[C@H](CC[C@@H]4[C@@]5(C)CC=C(c6ccc(C(=O)O)cc6)C(C)(C)[C@@H]5CC[C@]43C)[C@@H]12 [Example B57, 4-((1R,3aS,5aR,5bR,7aR,11aS,11bR,13aR,13bR)-3a-((2-(4-(2-cyclohexylacetyl)piperazin-1-yl)ethyl)amino)-5a,5b,8,8,11a-pentamethyl-1-(prop-1-en-2-yl)-2,3,3a,4,5,5a,5b,6,7,7a,8,11,11a,11b,12,13,13a,13b-octadecahydro-1H-cyclopenta[a]chrysen-9-yl)benzoic acid] | > 7.00
C=C(C)[C@@H]1CC[C@]2(NCCN3CCN(C(=O)C(C)c4ccccc4)CC3)CC[C@]3(C)[C@H](CC[C@@H]4[C@@]5(C)CC=C(c6ccc(C(=O)O)cc6)C(C)(C)[C@@H]5CC[C@]43C)[C@@H]12 (stereo partly drawn) [Example B58, 4-((1R,3aS,5aR,5bR,7aR,11aS,11bR,13aR,13bR)-5a,5b,8,8,11a-pentamethyl-3a-((2-(4-(2-phenylpropanoyl)piperazin-1-yl)ethyl)amino)-1-(prop-1-en-2-yl)-2,3,3a,4,5,5a,5b,6,7,7a,8,11,11a,11b,12,13,13a,13b-octadecahydro-1H-cyclopenta[a]chrysen-9-yl)benzoic acid] | > 7.00
C=C(C)[C@@H]1CC[C@]2(NCCN3CCN(C(=O)CC(C)C)CC3)CC[C@]3(C)[C@H](CC[C@@H]4[C@@]5(C)CC=C(c6ccc(C(=O)O)cc6)C(C)(C)[C@@H]5CC[C@]43C)[C@@H]12 [Example B59, 4-((1R,3aS,5aR,5bR,7aR,11aS,11bR,13aR,13bR)-5a,5b,8,8,11a-pentamethyl-3a-((2-(4-(3-methylbutanoyl)piperazin-1-yl)ethyl)amino)-1-(prop-1-en-2-yl)-2,3,3a,4,5,5a,5b,6,7,7a,8,11,11a,11b,12,13,13a,13b-octadecahydro-1H-cyclopenta[a]chrysen-9-yl)benzoic acid] | > 7.00
C=C(C)[C@@H]1CC[C@]2(NCCN3CCN(C(=O)CC)CC3)CC[C@]3(C)[C@H](CC[C@@H]4[C@@]5(C)CC=C(c6ccc(C(=O)O)cc6)C(C)(C)[C@@H]5CC[C@]43C)[C@@H]12 [Example B60, 4-((1R,3aS,5aR,5bR,7aR,11aS,11bR,13aR,13bR)-5a,5b,8,8,11a-pentamethyl-1-(prop-1-en-2-yl)-3a-((2-(4-propionylpiperazin-1-yl)ethyl)amino)-2,3,3a,4,5,5a,5b,6,7,7a,8,11,11a,11b,12,13,13a,13b-octadecahydro-1H-cyclopenta[a]chrysen-9-yl)benzoic acid] | > 7.00
C=C(C)[C@@H]1CC[C@]2(NCCN3CCN(C(=O)CCC)CC3)CC[C@]3(C)[C@H](CC[C@@H]4[C@@]5(C)CC=C(c6ccc(C(=O)O)cc6)C(C)(C)[C@@H]5CC[C@]43C)[C@@H]12 [Example B61, 4-((1R,3aS,5aR,5bR,7aR,11aS,11bR,13aR,13bR)-3a-((2-(4-butyrylpiperazin-1-yl)ethyl)amino)-5a,5b,8,8,11a-pentamethyl-1-(prop-1-en-2-yl)-2,3,3a,4,5,5a,5b,6,7,7a,8,11,11a,11b,12,13,13a,13b-octadecahydro-1H-cyclopenta[a]chrysen-9-yl)benzoic acid] | > 7.00
C=C(C)[C@@H]1CC[C@]2(NCCN3CCN(C(=O)C4CC4)CC3)CC[C@]3(C)[C@H](CC[C@@H]4[C@@]5(C)CC=C(c6ccc(C(=O)O)cc6)C(C)(C)[C@@H]5CC[C@]43C)[C@@H]12 [Example B62, 4-((1R,3aS,5aR,5bR,7aR,11aS,11bR,13aR,13bR)-3a-((2-(4-(cyclopropanecarbonyl)piperazin-1-yl)ethyl)amino)-5a,5b,8,8,11a-pentamethyl-1-(prop-1-en-2-yl)-2,3,3a,4,5,5a,5b,6,7,7a,8,11,11a,11b,12,13,13a,13b-octadecahydro-1H-cyclopenta[a]chrysen-9-yl)benzoic acid] | > 7.00
C=C(C)[C@@H]1CC[C@]2(NCCN3CCN(C(=O)C4(C)CC4)CC3)CC[C@]3(C)[C@H](CC[C@@H]4[C@@]5(C)CC=C(c6ccc(C(=O)O)cc6)C(C)(C)[C@@H]5CC[C@]43C)[C@@H]12 [Example B63, 4-((1R,3aS,5aR,5bR,7aR,11aS,11bR,13aR,13bR)-5a,5b,8,8,11a-pentamethyl-3a-((2-(4-(1-methylcyclopropanecarbonyl)piperazin-1-yl)ethyl)amino)-1-(prop-1-en-2-yl)-2,3,3a,4,5,5a,5b,6,7,7a,8,11,11a,11b,12,13,13a,13b-octadecahydro-1H-cyclopenta[a]chrysen-9-yl)benzoic acid] | > 7.00
C=C(C)[C@@H]1CC[C@]2(NCCN3CCN(C(=O)C(C)C)CC3)CC[C@]3(C)[C@H](CC[C@@H]4[C@@]5(C)CC=C(c6ccc(C(=O)O)cc6)C(C)(C)[C@@H]5CC[C@]43C)[C@@H]12 [Example B64, 4-((1R,3aS,5aR,5bR,7aR,11aS,11bR,13aR,13bR)-3a-((2-(4-isobutyrylpiperazin-1-yl)ethyl)amino)-5a,5b,8,8,11a-pentamethyl-1-(prop-1-en-2-yl)-2,3,3a,4,5,5a,5b,6,7,7a,8,11,11a,11b,12,13,13a,13b-octadecahydro-1H-cyclopenta[a]chrysen-9-yl)benzoic acid] | > 7.00
